Results as given in PMC5861220, “The Cytochrome P450-Mediated Metabolism Alternation of Four Effective Lignans From Schisandra chinensis in Carbon Tetrachloride-Intoxicated Rats and Patients With Advanced Hepatocellular Carcinoma” (Frontiers in Pharmacology, 2018).
Where two headings read alike, the source gives them in different places.

Key:
[1] = Identification of CYP450 isozymes in lignan metabolism, rat liver microsomes (no inhibitor / overall); type: in vitro ADME; conditions: rat, 5 μM, pH 7.4
Experimental: (§1) The CYP450s involved in the metabolism of schisandrin, schisantherin A, deoxyshisandrin and γ-schisandrin in rat or human liver microsomes were confirmed by comparison of the metabolism ratio before and after the addition of selective inhibitors to CYP450 isozymes. […] The supernate was injected to HPLC-MS for analysis of the four lignans.

[2] = Pharmacokinetics of four lignans in rats after oral SC alcoholic extract; type: in vivo, rat; conditions: for AUC(0-t) / Cmax / half-life / CL/F / MRT last / Tmax: Sprague-Dawley, rat, plasma, po, 1.5 g/kg/day, oral SC alcoholic extract 1.5 g/kg/day for 4 days, n = 5; for CL/F: read-out: CLz/F (converted); for MRT last: read-out: MRT(0−t); for Tmax: read-out: Tmax
Experimental: The pharmacokinetic profiles of four lignans were studied in ALI rat after multiple oral administrations of SC alcoholic extract at dose of 1.5 g/kg/day. After the ALI rat was established, SC alcoholic extract suspended in 0.5% sodium carboxymethyl cellulose was given to ALI rats and the control via oral gavage once a day for 4 consecutive days. Before the last dosing, rats were fasted for 12 h while water was taken freely. Blood samples were collected at 0, 0.25, 0.5, 1, 2, 3, 4, 6, 8, 12, 24, 36, and 48 h after the last dosing. A cannula was surgically placed into the jugular vein for collection of blood samples (about 0.1 mL) and blood loss compensation using sterile isotonic saline in the pharmacokinetic study. Plasma was separated by centrifugation and stored at −20°C until analysis. Plasma concentrations of the four lignans were quantified using HPLC-MS analysis developed according to the reported method (Wang et al., [2008]).
Data fitting and pharmacokinetic parameter calculations were carried out using the Winnolin software. Non-compartmental analysis was used to calculate the pharmacokinetic parameters. Parameters, such as AUC and MRT, were calculated using statistical moment method.

[3] = Transport across Caco-2 cell monolayer; type: in vitro ADME; conditions: human, Caco-2
Experimental: Caco-2 cell (passage 38) was used in the transport experiments. Cells were seeded on polycarbonate filters (12 mm diameter, pore size […]) at 1 × 10^5/cm^2. The cell monolayer was formed 21 days post seeding when the transepithelial electrical resistance (TEER) was above 1,000 Ω• cm^2. Three concentration levels (5, 10, and 50 μM) were set for the four schisandra lignans in the study. After preincubation for 1 h at 37°C, the solution of the four lignans was respectively added to the apical (0.4 mL) or basolateral (0.6 mL) chamber for absorptive (AP → BL) and secretive (BL → AP) permeability test. At the specified timepoints (0.5, 1, 1.5 and 2 h), 50 μL samples (n = 3) were withdrawn from receiver chamber, and meanwhile, 50 μL fresh buffer was added. The four lignans were determined by HPLC-MS method.
The efflux rate (ER) was calculated by the formula ER = Papp (BL → AP)/Papp(AP → BL).

[4] = system: rat intestine (jejunum segment); assay: In situ intestinal perfusion of four lignans; type: in vivo; conditions: for Perfusate (Percent of the initial dose) / Plasma (Percent of the initial dose) / Intestine (Percent of the initial dose) / Pblood / Plumen: 50 μM, n = 3; for Perfusate (Percent of the initial dose): intestinal perfusion 60 min; for Plasma (Percent of the initial dose) / Intestine (Percent of the initial dose): intestinal perfusion; for Plasma (Percent of the initial dose): mesenteric vein blood
Experimental: The surgical procedures of intestinal perfusion were conducted according to those published reports (Savina et al., [1981]). Hank's balanced salt solution (HBSS, pH 7.4) with four schisandra lignans (50 μM) at 37°C was infused into the jejunum segment at rate of 0.3 mL/min. Phenol Red (50 μM) was added to serve as a nonabsorbable marker for measuring water flux. Blood samples from mesenteric vein and perfusate were collected at 5-min interval. The plasma separated by centrifugation and perfusate was stored at −20°C until HPLC-MS analysis.
The permeability of four lignans across the rat intestine was calculated based on the disappearance of parent drug from the lumen (Plumen) as well as the appearance of the drug in blood (Pblood) using the following equations (Singhal et al., [1998]):
(1) Plumen = −Q/2πrlLnCout/Cin
(1) Pblood = ΔMB/Δt/2πrl{C}
where r is the radius of the perfused intestinal lumen; l is the length of the segment; Q is the flow rate of perfusate; Cin is the concentration of drug at the start of perfusion; and Cout is the steady-state concentration of drug exiting the lumen. ΔMB/Δt is the rate of drug appearance in mesenteric blood; and {C} is the logarithmic mean concentration of drug in the lumen.

rat liver = assay: In situ hepatic perfusion of four lignans; type: in vivo; conditions: hepatic perfusion 60 min, 10 μM, n = 3
Experimental: (§2) In situ liver perfusion was performed similarly as the method described previously (Uraki et al., [2016]). […] The perfusate consisted of Krebs–Hensleit buffer (pH 7.4) containing sodium taurocholate (4.75 mg/L), 1% bovine serum albumin, and glucose (1.2 g/L) was oxygenated using carbogen, 95% O2/5% CO2. The perfusate at 37°C was infused into the portal vein at a flow rate of 30 mL/min in a recirculatory manner. After 10-min equilibration, four schisandra lignans were added to the reservoir (final concentration of 10 μM). Perfusate (0.5 mL) and bile samples were collected at 0, 10, 20, 30, 40, 50, and 60 min after the addition of lignans. The same volume of blank perfusion buffer was immediately added to the reservoir after collection of the perfusate samples. After hepatic perfusion, rat was sacrificed and liver was removed, blotted dry, and weighed.

[5] = In situ hepatic perfusion of four lignans; type: in vivo, rat; conditions: Sprague-Dawley, rat, perfusate, perfusate AUC(0−1h), n = 3
Experimental: as §2

[6] = Identification of CYP450 isozymes in lignan metabolism, human liver microsomes (no inhibitor); type: in vitro ADME; conditions: human, 5 μM, pH 7.4
Experimental: as §1

SMILES: COc1cc2c(c(OC)c1OC)-c1c(cc3c(c1OC)OCO3)C[C@H](C)[C@H](C)C2 [γ-Schisandrin, γ-schisandrin]
- Metabolism rate [1]: 79.6 ± 6.5 nmol/min/mg
- Reduction of systemic clearance (CLz/F) ([2]; CCl4 intoxicated rats vs control rats): ~54%
- AUC(0-t) ([2]; CCl4-intoxicated rats): 11600 ± 3090 ng·h/mL
- Cmax ([2]; CCl4-intoxicated rats): 628 ± 164 ng/mL
- half-life ([2]; CCl4-intoxicated rats): 14.5 ± 5.05 h
- CL/F ([2]; CCl4-intoxicated rats): 25.2 mL/min/kg
- MRT last ([2]; CCl4-intoxicated rats): 15.9 ± 1.24 h
- Tmax ([2]; CCl4-intoxicated rats): 4.2 ± 1.79 h
- AUC(0-t) ([2]; Control (normal) rats): 5220 ± 1430 ng·h/mL
- Cmax ([2]; Control (normal) rats): 182 ± 103 ng/mL
- half-life ([2]; Control (normal) rats): 15.4 ± 2.52 h
- CL/F ([2]; Control (normal) rats): 54.3 mL/min/kg
- MRT last ([2]; Control (normal) rats): 16.5 ± 0.94 h
- Tmax ([2]; Control (normal) rats): 6.4 ± 0.89 h
- Papp A→B at 2 h, 5 μM ([3]; 5 μM): 1.17 ± 0.16 ×10⁻⁶ cm/s
- Papp B→A at 2 h, 5 μM ([3]; 5 μM): 1.32 ± 0.14 ×10⁻⁶ cm/s
- efflux ratio at 2 h, 5 μM ([3]; 5 μM, ER = Papp (BL → AP)/Papp(AP → BL)): 1.13
- Papp A→B at 2 h, 10 μM ([3]; 10 μM): 1.18 ± 0.09 ×10⁻⁶ cm/s
- Papp B→A at 2 h, 10 μM ([3]; 10 μM): 1.34 ± 0.11 ×10⁻⁶ cm/s
- efflux ratio at 2 h, 10 μM ([3]; 10 μM, ER = Papp (BL → AP)/Papp(AP → BL)): 1.14
- Papp A→B at 2 h, 50 μM ([3]; 50 μM): 1.22 ± 0.16 ×10⁻⁶ cm/s
- Papp B→A at 2 h, 50 μM ([3]; 50 μM): 1.32 ± 0.2 ×10⁻⁶ cm/s
- efflux ratio at 2 h, 50 μM ([3]; 50 μM, ER = Papp (BL → AP)/Papp(AP → BL)): 1.08
- Perfusate (Percent of the initial dose) ([4]; CCl4-intoxicated rats): 91.92 ± 1.69% of the initial dose
- Plasma (Percent of the initial dose) ([4]; CCl4-intoxicated rats): 0.82 ± 0.06% of the initial dose
- Intestine (Percent of the initial dose) ([4]; CCl4-intoxicated rats): 1.87 ± 0.20% of the initial dose
- Pblood ([4]; CCl4-intoxicated rats): 0.066 ± 0.018 × 10^−4 cm/s
- Plumen ([4]; CCl4-intoxicated rats): 2.540 ± 0.423 × 10^−4 cm/s
- Perfusate (Percent of the initial dose) ([4]; Control rats): 92.57 ± 1.67% of the initial dose
- Plasma (Percent of the initial dose) ([4]; Control rats): 0.84 ± 0.09% of the initial dose
- Intestine (Percent of the initial dose) ([4]; Control rats): 1.66 ± 0.27% of the initial dose
- Pblood ([4]; Control rats): 0.052 ± 0.009 × 10^−4 cm/s
- Plumen ([4]; Control rats): 2.543 ± 0.174 × 10^−4 cm/s
- Increase of remaining amount in perfusate ([4]; intestinal autoperfusion (60 min), CCl4-treated rats vs control): not changed
- Total amount of analyte in bile (rat liver; CCl4-intoxicated rats): 1.19 ± 0.28 µg
- Total amount of analyte in liver (rat liver; CCl4-intoxicated rats): 14.25 ± 1.36 µg
- Total amount of analyte in bile (rat liver; Control rats): 1.37 ± 0.14 µg
- Total amount of analyte in liver (rat liver; Control rats): 11.10 ± 1.31 µg
- AUC at 10 μM ([5]; pH 7.4, CCl4-intoxicated rats): 3740 ± 70 ng·h/mL
- AUC at 10 μM ([5]; pH 7.4, Control rats): 3190 ± 70 ng·h/mL
- Metabolism rate [6]: 194.1 ± 12.9 nmol/min/mg
